Source: US10703748B2, “Diazanaphthalen-3-yl carboxamides and preparation and use thereof” (Samumed, LLC, priority 2017, dated 2020)

Key:
[1] = tested on: Wnt-responsive Sp5-Luc reporter in SW480 colon carcinoma cells; assay: Screening assay for Wnt activity (Sp5-Luc reporter gene assay); conditions: Homo sapiens; for EC50: SW480
Procedure: The screening assay for Wnt activity is described as follows.
SW480 colon carcinoma cells were transduced with a lentiviral vector expressing luciferase with a human Sp5 promoter consisting of a sequence of eight TCF/LEF binding sites. […] These stably transduced SW480 cells were expanded in cell culture and used for all further screening activities. Each compound was dissolved in DMSO as a 10 mM stock and used to prepare compound source plates. Serial dilution (1:3, 10-point dose-response curves starting from 10 μM) and compound transfer was performed using the ECHO 550 (Labcyte, Sunnyvale, Calif.) into 384-well white solid bottom assay plates (Greiner Bio-One) with appropriate DMSO backfill for a final DMSO concentration of 0.1%. […] Following incubation, 15 μl of BriteLite Plus luminescence reagent (Perkin Elmer) was added to each well of the 384-well assay plates. The plates were placed on an orbital shaker for 2 min and then luminescence was quantified using the Envision (Perkin Elmer) plate reader.

[2] = tested on: Tau phosphorylation at Threonine 212 (pT212Tau); assay: Tau phosphorylation at Threonine 212 (pT212Tau) in Dyrk1a- and MAPT-overexpressing HEK293T cells, sandwich ELISA; type: cell-based; conditions: Homo sapiens, HEK-293T, overnight (16-18 hours), read-out: Thr212 EC50
Procedure: HEK293T cells (transfectable human embryonic kidney cells) were cultured in DMEM medium supplemented with 10% FBS and 1% penicillin/streptomycin.
HEK293T cells were transiently transfected to overexpress Dyrk1a and microtubule-associated protein Tau (MAPT) genes. Specifically, Dyrk1a and MAPT expression vectors were obtained from OriGene (10 μg of each, catalog numbers SC314641 and RC216166, respectively). A MaxiPrep for each vector was ordered and received from GeneWiz, yielding 874.5 μg (resuspended at […]) of the Dyrk1a expression vector, and 898 μg (resuspended at […]) of MAPT.
HEK293T cells were seeded at 1.0×10^7 cells in 10 mL per T-75 flask. […] One T-75 flask was designated as a no-vector negative control for pT212Tau signal.
After 4-6 hours of incubation in transfection reagents, transiently double transfected HEK293T cells were dissociated by treatment with trypsin EDTA and seeded at 1.0×10^5 cells in 100 μL per well in 96-well plates. No-vector negative controls were seeded in separate 96-well plates to avoid the risk of the negative control cells picking up the overexpression during incubation. At the time of seeding, DMSO-resuspended Samumed compounds were dispensed to eight wells as a serial dilution from 10 μM to 4.6 nM final concentration in medium, or at 0.12 μM to 0.05 nM with particularly potent compounds. Cells were exposed to the representative compounds overnight (16-18 hours) in a 37° C. incubator.
96-Well flat-bottom plates were coated with 100 μL per well anti-HT7 capture antibody (ThermoFisher, MN1000) diluted 1:300 in 1×PBS at 4° C. overnight, with shaking at 500 rpm. After overnight capture antibody incubation, coated plates were washed four times with 200 μL per well of 1×PBS-0.05% Tween-20, and blocked for 1 hour with 200 μL per well of 1×PBS with 2% BSA. After 1 hour of blocking, plates were washed four times with 200 μL per well of 1×PBS-0.05% Tween-20, prior to sample loading.
Wells of compound-treated cells were visually checked for cell death before being washed with 200 μL per well of 1×DPBS supplemented with phosphatase inhibitor diluted to 1×. Cells were then lysed with 100 μL 1×RIPA buffer supplemented with phosphatase and protease inhibitors (each diluted to a final 1×). Cells were shaken at 500 rpm, 4° C. for 20 minutes prior to further lysis (via manual scraping) and transfer to 96-well V-bottom collection plates (Corning, 3894). V-bottom plates were centrifuged at 4000 rpm, 4° C., for 15 minutes, and 100 μL of lysate supernatant from each well was directly tested for pT212Tau signal by sandwich ELISA.
Specifically, lysates were directly transferred to the coated and blocked ELISA plates for 2 hours before plates were washed four times with 200 μL per well of 1×PBS-0.05% Tween-20 and probed with 100 μL per well of anti-pT212Tau antibody (ThermoFisher, 44-740G) diluted 1:200 in 1×PBS for 2 hours. Plates were washed four times with 200 μL per well of 1×PBS-0.05% Tween-20 and probed with 100 μL per well of anti-rabbit/HRP conjugate (Cell Signaling Technology, 7074S) diluted 1:600 in 1×PBS for 1 hour. Plates were washed four times with 200 μL per well of 1×PBS-0.05% Tween-20 before 100 μL per well of TMB substrate solution (ThermoFisher, N301) was added. When colour development was observed, 100 μL per well of stop solution (ThermoFisher, N600) was added, and colorimetric detection of pT212Tau signal was read at 450 nm with the Cytation 3 Cell Imaging Multi-Mode Reader (BioTek). The signal was used to plot, draw the curves fitting, and determine the EC50 values in GraphPad Prism for tested representative compounds.

DYRK1A kinase = DYRK1A kinase (Homo sapiens, UniProt Q13627); assay: DYRK1A kinase activity (Ser/Thr 18 peptide Z-lyte FRET assay); type: biochemical; conditions: recombinant DYRK1A, 30 μM ATP, one hour at room temperature;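 note: kinase activity read as coumarin/fluorescein emission ratio after development step, with unphosphorylated and phosphorylated peptide forms setting 0% and 100% controls, values from dose-response curves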
Procedure: Representative compounds were screened using the assay procedure for DYRK1A kinase activity as described below.
Each compound was dissolved in DMSO as a 10 mM stock and used to prepare compound source plates.
This is a non-radioactive assay using fluorescence resonance energy transfer (FRET) between coumarin and fluorescein to detect kinase activity which is represented as a ratio of coumarin emission/fluorescein emission.
The mixture was allowed to incubate with the representative compounds for one hour at room temperature. All reactions were performed in duplicate. Unphosphorylated (“0% Control”) and phosphorylated (“100% control”) forms of Ser/Thr 18 served as control reactions. Additionally, an 11-point dose-response curve of Staurosporine (1 uM top) was run to serve as a positive compound control.
After incubation, Development Reagent A was diluted in Development Buffer then added to the reaction and allowed to further incubate for one hour at room temperature.
Dose-response curves were generated and inhibitory concentration (IC50) values were calculated using non-linear regression curve fit in the Dotmatics' Studies Software (Bishops Stortford, UK).

GSK3β kinase = GSK3β kinase (Homo sapiens, UniProt P49841); assay: GSK3β kinase activity (Ser/Thr 09 peptide Z-lyte FRET assay); type: biochemical; conditions: recombinant kinase, 46 μM ATP, one hour at room temperature; read-out: EC50
[3] = tested on: secreted cytokines TNFα, IL-6 and KC-GRO; assay: Secreted cytokines in Lipopolysaccharide-stimulated BV-2 cells (Table 9 does not say which cytokine); type: cell-based, mouse; conditions: Mus musculus, BV-2, 5 h; read-out: EC50
IL-6 = IL-6 inhibition in LPS-stimulated human peripheral blood mononuclear cells (HTRF); conditions: Homo sapiens, PBMC; for EC50: 22 h; for inhibition at 10 µM: read-out: percentage in parentheses after EC50 >10
Procedure: Each compound was dissolved in DMSO (Catalog # D8418-100 ml, Sigma-Aldrich, St. Louis, Mo.) as a 10 mM stock and used to prepare compound source plates. […] After 22 hour incubation, a mixture of anti-IL6 XL665 and anti-IL-6 Cryptate diluted in reconstitution buffer (Catalog #62IL6PEC, Cisbio Inc., Bedford, Mass.) was added to each well. […] All samples were processed in duplicate. […] EC50 was determined using software generated by Dotmatics Limited (Windhill Bishops Stortford Herts, UK) using the Levenberg-Marquardt 4 parameter fitting procedure with finite different gradients.

[4] = tested on: SW480 colon carcinoma cells; assay: Cell viability assay (CellTiter-Glo); conditions: Homo sapiens; for EC50: SW480, 96 h; for inhibition at 10 µM: SW480, read-out: percent inhibition at 10 μM
[5] = tested on: α-smooth muscle actin (aSMA) positive LL29 cells; assay: Inhibition of the fibrotic process: αSMA staining in TGF-β1 treated LL29 fibroblasts from IPF patients; conditions: Homo sapiens, Fibroblast; for EC50: 96 h; for inhibition at 10 µM: read-out: percentage in parentheses after EC50 >10
[6] = tested on: Tau phosphorylation at Ser396 (pSer396); assay: Tau phosphorylation at Ser396 (pSer396) in SH-SY5Y cells, ELISA / western blot; type: cell-based, human; conditions: Homo sapiens; SH-SY5Y cells, overnight (16-18 h); read-out: pSer396 Tau EC50;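 note: decrease in pSer396 Tau measured in lysates of treated cells by colorimetric ELISA or chemiluminescent western blot, same pSer396 antibody for both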
Procedure: Two days before treatment, cells were seeded onto 96 well plates at 5×10^4 cells/well.
The above synthesized compounds were screened using the cell assay procedure to assess decrease Tau phosphorylation at Ser396 (pSer396) described below.
Cells were lysed with RIPA buffer complemented with phosphatase and protease inhibitors then lysates were spun down at 12,000 g for 10 min to remove any cellular debris.

Chain of GSK3β kinase (P49841 whole entry): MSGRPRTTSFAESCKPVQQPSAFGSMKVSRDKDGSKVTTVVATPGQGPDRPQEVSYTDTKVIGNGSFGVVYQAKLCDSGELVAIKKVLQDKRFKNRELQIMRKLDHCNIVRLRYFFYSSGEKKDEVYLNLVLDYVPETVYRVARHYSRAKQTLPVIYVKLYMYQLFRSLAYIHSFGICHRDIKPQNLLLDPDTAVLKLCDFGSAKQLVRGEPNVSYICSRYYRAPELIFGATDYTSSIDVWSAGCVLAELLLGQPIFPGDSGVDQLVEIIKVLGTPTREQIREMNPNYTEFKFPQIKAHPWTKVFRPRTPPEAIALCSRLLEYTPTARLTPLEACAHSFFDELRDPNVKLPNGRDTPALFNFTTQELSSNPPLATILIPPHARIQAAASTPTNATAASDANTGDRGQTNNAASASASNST

| SMILES | EC50 [1] [nM] | EC50 [2] [nM] | EC50 (DYRK1A kinase) [nM] | EC50 (GSK3β kinase) [nM] | EC50 [3] [nM] | EC50 (IL-6) [nM] | EC50 [4] [nM] | inhibition at 10 µM [4] [%] | EC50 [5] [nM] | EC50 [6] [nM] | inhibition at 10 µM (IL-6) [%] | inhibition at 10 µM [5] [%] | inhibition at 10 µM ([1]; SW480, read-out: percent inhibition at 10 μM) [%] |
| --- | --- | --- | --- | --- | --- | --- | --- | --- | --- | --- | --- | --- | --- |
| Cc1ncc(-c2ccc3cnc(NC(=O)C4CCN(C(=O)CN5CCCC5)CC4)cc3n2)s1 [Compound 4561, N-(2-(2-Methylthiazol-5-yl)-1,6-naphthyridin-7-yl)-1-(2-(pyrrolidin-1-yl)acetyl)piperidine-4-carboxamide] | 953 | 306 | 7 | 182 | 129 | 4560 | > 10000 | 49.5 | 664 | 2100 |  |  |  |
| Cn1cc(-c2cc3cc(NC(=O)C4CCNCC4)ncc3cn2)cn1 [Compound 3638, N-(6-(1-Methyl-1H-pyrazol-4-yl)-2,7-naphthyridin-3-yl)piperidine-4-carboxamide] | 593 | 112 | 6 | 27 | 1400 | > 10000 | 6920 |  | > 10000 | 1500 | 6.3 | 34.9 |  |
| CN1CCN(c2cccc(C(=O)Nc3cc4cc(-c5cnn(C)c5)ccc4nn3)c2)CC1 [Compound 1953, N-(6-(1-Methyl-1H-pyrazol-4-yl)cinnolin-3-yl)-3-(4-methylpiperazin-1-yl) benzamide] | > 10000 | > 10000 | 317 | 2620 | 2900 | > 10000 | > 10000 | 7.8 | > 10000 | > 10000 | 12.8 | 55.5 | 9.7 |
| Cn1cc(-c2cc3cc(NC(=O)c4ccnc(N5CCNCC5)c4)ncc3cn2)cn1 [Compound 3773, N-(6-(1-Methyl-1H-pyrazol-4-yl)-2,7-naphthyridin-3-yl)-2-(piperazin-1-yl) isonicotinamide] | 2820 | 268 | 16 | 852 | 305 | > 10000 | 5640 |  | 3320 | > 10000 | 1.1 |  |  |
| CN1CCC(Oc2ccc(C(=O)Nc3cc4cc(-c5cnn(C)c5)cnc4cn3)cc2)CC1 [Compound 2865, N-(3-(1-Methyl-1H-pyrazol-4-yl)-1,7-naphthyridin-6-yl)-4-((1-methylpiperidin-4-yl)oxy)benzamide] | 3020 | 122 | 41 | > 10000 | 160 | 9610 | 4380 |  | 5120 | > 10000 |  |  |  |
| CC(C)CN1CCC(C(=O)Nc2cc3cc(-c4cnn(C)c4)ncc3cn2)CC1 [Compound 3643, 1-Isobutyl-N-(6-(1-methyl-1H-pyrazol-4-yl)-2,7-naphthyridin-3-yl) piperidine-4-carboxamide] | 73 | 30 | 10 | 31 | 3900 | > 10000 | 6990 |  | 2500 | 102 | 9.8 |  |  |
